Test results as given in ChEMBL document CHEMBL2401618 (Eur J Med Chem, 2013).

Legend:
[1] = tested on: Plasmodium falciparum; assay: Antiplasmodial activity against chloroquine-resistant Plasmodium falciparum FcB1/Columbia infected in human erythrocytes assessed as parasite growth inhibition at 10 ug/ml after 24 hrs by [3H]-hypoxanthine incorporation assay relative to control; assay type: functional; conditions: read-out: GI
[2] = tested on: Trypanosoma brucei brucei; assay: Antitrypanosomal activity against bloodstream stage of Trypanosoma brucei brucei 93 assessed as parasite growth inhibition at 1 ug/ml after 72 hrs by resazurin reduction assay relative to control; assay type: functional; conditions: Trypanosoma brucei, 93, 72 h; read-out: GI
[3] = tested on: Trypanosoma brucei brucei; assay: Antitrypanosomal activity against bloodstream stage of Trypanosoma brucei brucei 93 assessed as parasite growth inhibition at 10 ug/ml after 72 hrs by resazurin reduction assay relative to control; assay type: functional; conditions: Trypanosoma brucei, 93, 72 h; read-out: GI
[4] = tested on: Plasmodium falciparum; assay: Antiplasmodial activity against chloroquine-resistant Plasmodium falciparum FcB1/Columbia infected in human erythrocytes assessed as parasite growth inhibition after 24 hrs by [3H]-hypoxanthine incorporation assay; assay type: functional, organism-based
[5] = Cytotoxicity against african green monkey Vero cells assessed as growth inhibition at 10^-5 M after 72 hrs by MTS assay relative to control; assay type: cell-based; conditions: chlorocebus sabaeus, read-out: GI
[6] = tested on: Leishmania donovani; assay: Leishmanicidal activity against promastigote stage of Leishmania donovani LV9 assessed as cell viability by MTT assay; assay type: functional, organism-based
[7] = Safety index, ratio of IC50 for african green monkey Vero cells to IC50 for promastigote stage of Leishmania donovani LV9; assay type: toxicity, cell-based; conditions: read-out: Ratio IC50
[8] = Safety index, ratio of IC50 for african green monkey Vero cells to IC50 for chloroquine-resistant Plasmodium falciparum FcB1/Columbia infected in human erythrocytes; assay type: toxicity, cell-based; conditions: read-out: Ratio IC50
[9] = tested on: Trypanosoma brucei brucei; assay: Antitrypanosomal activity against bloodstream stage of Trypanosoma brucei brucei 93 assessed as parasite growth inhibition at 50 ug/ml after 72 hrs by resazurin reduction assay relative to control; assay type: functional; conditions: Trypanosoma brucei, 93, 72 h; read-out: GI
[10] = tested on: Plasmodium falciparum; assay: Antiplasmodial activity against chloroquine-resistant Plasmodium falciparum FcB1/Columbia infected in human erythrocytes assessed as parasite growth inhibition at 50 ug/ml after 24 hrs by [3H]-hypoxanthine incorporation assay relative to control; assay type: functional; conditions: read-out: GI
[11] = tested on: Plasmodium falciparum; assay: Antiplasmodial activity against chloroquine-resistant Plasmodium falciparum FcB1/Columbia infected in human erythrocytes assessed as parasite growth inhibition at 1 ug/ml after 24 hrs by [3H]-hypoxanthine incorporation assay relative to control; assay type: functional; conditions: read-out: GI
[12] = tested on: Vero; assay: Cytotoxicity against african green monkey Vero cells assessed as growth inhibition after 72 hrs by MTS assay; assay type: cell-based; conditions: Chlorocebus sabaeus
[13] = Safety index, ratio of IC50 for african green monkey Vero cells to IC50 for bloodstream stage of Trypanosoma brucei brucei 93; assay type: toxicity, cell-based; conditions: read-out: Ratio IC50
[14] = tested on: Trypanosoma brucei brucei; assay: Antitrypanosomal activity against bloodstream stage of Trypanosoma brucei brucei 93 assessed as parasite growth inhibition after 72 hrs by resazurin reduction assay; assay type: functional, organism-based; conditions: Trypanosoma brucei, 93, 72 h

SMILES	inhibition of growth at 10 µg/mL [1]	inhibition of growth at 1 µg/mL [2]	inhibition of growth at 10 µg/mL [3]	IC50 [4]	inhibition at 72 h, 10 µM [5]	IC50 [6]	selectivity ratio [7]	selectivity ratio [8]	inhibition of growth at 50 µg/mL [9]	inhibition of growth at 50 µg/mL [10]	inhibition of growth at 1 µg/mL [11]	IC50 [12]	selectivity ratio [13]	IC50 [14]
CC(C)=CCC[C@]1(C)[C@@H](CC=C(C)C)C[C@]2(CC=C(C)C)C(=O)[C@@]1(CC=C(C)C)C(=O)C(C(=O)c1ccc(OCCC3OCCO3)c(OCCC3OCCO3)c1)=C2O	94.1%	44.8%	96.7%	2 µM	29%	34.3 µM	1.2	20.8	95%	99.6%	17.6%	41.6 µM	22.8	1.83 µM
CC(C)=CCC[C@]1(C)[C@@H](CC=C(C)C)C[C@]2(CC=C(C)C)C(=O)[C@@]1(CC=C(C)C)C(=O)C(C(=O)c1ccc(OC(=O)C(C)(C)C)c(OC(=O)C(C)(C)C)c1)=C2O	27.2%	42.9%	91.2%	–	13%	> 100 µM	< 1	–	96.4%	0.5%	4.48%	100 µM	11.5	8.66 µM
COc1ccc(C(=O)C2=C(O)[C@]3(CC=C(C)C)C[C@H](CC=C(C)C)[C@@](C)(CCC=C(C)C)[C@](CC=C(C)C)(C2=O)C3=O)cc1O [14-O-METHYL-GUTTIFERONE A]	75.2%	85.3%	96.3%	4.46 µM	–	9.4 µM	1.2	2.6	92.8%	98.9%	10.7%	11.5 µM	8.1	1.42 µM
